# Assay results reported in ChEMBL document CHEMBL4715866, “A Chemical Probe for Dark Kinase STK17B Derives Its Potency and High Selectivity through a Unique P-Loop Conformation” (J Med Chem, 2020).
# Legend:
# [1] = Stability in mouse liver microsomes assessed as compound remaining at 0.1 mM in presence of NADPH regeneration system after 30 mins by LC-MS/MS analysis; format: ADME, Microsome; details: read-out: Stabilty
# [2] = molecular target: T1, Serine/threonine-protein kinase 17B (Homo sapiens, UniProt O94768); assay: Inhibition of N-terminal His-tagged STK17B kinase domain (25 to 329 residues) (unknown origin) expressed in Escherichia coli incubated for 90 mins by Kinase seeker split luciferase assay
# T1 sequence (O94768 whole entry): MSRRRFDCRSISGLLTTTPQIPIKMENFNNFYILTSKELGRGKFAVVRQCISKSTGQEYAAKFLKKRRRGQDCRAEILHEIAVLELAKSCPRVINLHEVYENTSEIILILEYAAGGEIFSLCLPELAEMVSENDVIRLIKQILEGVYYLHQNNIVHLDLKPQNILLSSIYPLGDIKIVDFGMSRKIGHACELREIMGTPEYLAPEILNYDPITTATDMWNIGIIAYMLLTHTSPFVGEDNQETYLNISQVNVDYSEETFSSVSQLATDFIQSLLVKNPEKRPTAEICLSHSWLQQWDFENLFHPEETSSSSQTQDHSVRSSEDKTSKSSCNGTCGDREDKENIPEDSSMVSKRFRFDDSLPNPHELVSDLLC
# [3] = molecular target: T2, Serine/threonine-protein kinase 17A (Homo sapiens, UniProt Q9UEE5); assay: Binding affinity to STK17A (unknown origin) by KINOMEscan scanMAX assay
# T2 sequence (Q9UEE5 whole entry): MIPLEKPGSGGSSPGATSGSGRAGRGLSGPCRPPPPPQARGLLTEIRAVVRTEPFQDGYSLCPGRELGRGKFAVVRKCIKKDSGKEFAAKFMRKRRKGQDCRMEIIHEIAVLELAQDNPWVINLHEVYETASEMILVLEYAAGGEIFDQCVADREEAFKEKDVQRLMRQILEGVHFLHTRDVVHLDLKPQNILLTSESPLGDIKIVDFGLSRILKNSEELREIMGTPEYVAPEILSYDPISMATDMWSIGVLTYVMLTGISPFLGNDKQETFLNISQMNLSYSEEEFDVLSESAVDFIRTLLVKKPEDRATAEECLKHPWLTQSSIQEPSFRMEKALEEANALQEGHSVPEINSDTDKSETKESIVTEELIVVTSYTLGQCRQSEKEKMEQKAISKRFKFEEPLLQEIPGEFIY
# [4] = molecular target: T1, Serine/threonine-protein kinase 17B
# [5] = Kinetic solubility in pH 7.4 PBS; format: physicochemical; details: read-out: Kinetic_solubility
# Aurora kinase B [6] = molecular target: T3, Aurora kinase B (Homo sapiens, UniProt Q96GD4); assay: Binding affinity to human AURKB assessed as displacement of immobilized ligand by KINOMEscan scanMAX assay relative to control
# T3 sequence (Q96GD4 whole entry): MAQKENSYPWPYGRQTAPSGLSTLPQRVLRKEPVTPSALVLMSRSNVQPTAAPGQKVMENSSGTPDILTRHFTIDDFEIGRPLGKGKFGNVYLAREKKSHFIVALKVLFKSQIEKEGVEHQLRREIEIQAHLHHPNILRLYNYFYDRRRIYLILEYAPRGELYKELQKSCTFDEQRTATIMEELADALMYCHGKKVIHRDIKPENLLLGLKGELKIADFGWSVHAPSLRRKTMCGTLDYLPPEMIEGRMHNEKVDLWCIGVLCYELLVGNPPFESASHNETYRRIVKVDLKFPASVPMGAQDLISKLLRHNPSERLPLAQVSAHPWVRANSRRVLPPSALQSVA
# [7] = molecular target: T4, Calcium/calmodulin-dependent protein kinase kinase 1 (Homo sapiens, UniProt Q8N5S9); assay: Binding affinity to human CAMKK1 assessed as displacement of immobilized ligand by KINOMEscan scanMAX assay relative to control
# T4 sequence (Q8N5S9 whole entry): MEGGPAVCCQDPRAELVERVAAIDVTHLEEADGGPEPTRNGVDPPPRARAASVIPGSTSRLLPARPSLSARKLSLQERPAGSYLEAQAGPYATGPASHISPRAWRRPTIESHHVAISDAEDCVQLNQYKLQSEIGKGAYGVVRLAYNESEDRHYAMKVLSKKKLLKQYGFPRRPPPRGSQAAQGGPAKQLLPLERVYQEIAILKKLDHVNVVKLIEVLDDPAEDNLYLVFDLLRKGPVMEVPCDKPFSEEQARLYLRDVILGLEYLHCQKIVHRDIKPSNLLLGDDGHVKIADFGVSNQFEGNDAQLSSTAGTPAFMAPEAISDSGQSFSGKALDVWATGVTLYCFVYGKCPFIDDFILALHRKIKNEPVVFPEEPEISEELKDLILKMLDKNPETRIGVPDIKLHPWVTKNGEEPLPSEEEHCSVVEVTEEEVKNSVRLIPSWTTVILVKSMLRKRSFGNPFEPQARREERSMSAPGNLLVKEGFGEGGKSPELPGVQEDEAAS
# [8] = molecular target: T5, Hepatocyte growth factor receptor (Homo sapiens, UniProt P08581); assay: Binding affinity to human MET assessed as displacement of immobilized ligand by KINOMEscan scanMAX assay relative to control
# T5 sequence (P08581 whole entry): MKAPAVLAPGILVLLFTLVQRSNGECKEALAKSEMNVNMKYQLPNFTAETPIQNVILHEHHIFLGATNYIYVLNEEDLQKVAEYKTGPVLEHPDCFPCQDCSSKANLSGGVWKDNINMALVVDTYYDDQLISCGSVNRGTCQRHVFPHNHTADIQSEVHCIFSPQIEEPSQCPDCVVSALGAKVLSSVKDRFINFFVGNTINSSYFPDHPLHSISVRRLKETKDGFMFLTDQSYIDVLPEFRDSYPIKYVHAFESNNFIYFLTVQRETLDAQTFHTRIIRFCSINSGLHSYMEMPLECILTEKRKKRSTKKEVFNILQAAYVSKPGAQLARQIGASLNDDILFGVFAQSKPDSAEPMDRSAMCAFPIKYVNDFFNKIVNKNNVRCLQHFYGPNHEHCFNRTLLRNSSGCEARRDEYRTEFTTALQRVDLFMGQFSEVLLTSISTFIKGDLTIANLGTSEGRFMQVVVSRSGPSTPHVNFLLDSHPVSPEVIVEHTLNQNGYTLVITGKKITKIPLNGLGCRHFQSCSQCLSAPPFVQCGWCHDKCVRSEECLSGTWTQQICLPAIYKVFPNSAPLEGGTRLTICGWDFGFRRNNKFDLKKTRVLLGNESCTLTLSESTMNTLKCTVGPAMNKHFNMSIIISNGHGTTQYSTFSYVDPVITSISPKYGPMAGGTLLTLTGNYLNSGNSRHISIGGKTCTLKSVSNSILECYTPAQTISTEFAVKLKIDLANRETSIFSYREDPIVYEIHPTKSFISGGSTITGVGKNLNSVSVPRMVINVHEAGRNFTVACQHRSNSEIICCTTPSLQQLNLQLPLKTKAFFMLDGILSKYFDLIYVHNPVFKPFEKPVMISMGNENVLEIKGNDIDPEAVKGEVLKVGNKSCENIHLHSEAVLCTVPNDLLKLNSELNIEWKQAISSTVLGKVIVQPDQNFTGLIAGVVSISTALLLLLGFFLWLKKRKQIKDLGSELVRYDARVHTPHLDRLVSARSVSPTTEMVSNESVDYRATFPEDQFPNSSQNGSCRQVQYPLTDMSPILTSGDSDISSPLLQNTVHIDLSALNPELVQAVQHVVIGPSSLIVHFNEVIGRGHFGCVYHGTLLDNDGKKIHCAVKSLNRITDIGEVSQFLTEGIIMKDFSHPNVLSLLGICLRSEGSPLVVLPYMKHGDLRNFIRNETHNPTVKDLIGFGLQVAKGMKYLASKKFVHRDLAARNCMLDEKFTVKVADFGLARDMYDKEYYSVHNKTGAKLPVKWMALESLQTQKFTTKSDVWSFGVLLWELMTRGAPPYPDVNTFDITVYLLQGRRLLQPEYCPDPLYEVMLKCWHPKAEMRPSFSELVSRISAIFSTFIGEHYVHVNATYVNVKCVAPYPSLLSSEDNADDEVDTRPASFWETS
# Aurora kinase B [9] = molecular target: T3, Aurora kinase B; assay: Inhibition of human AURKB in presence of ATP at Km level
# Aurora kinase B [10] = molecular target: T3, Aurora kinase B; assay: Binding affinity to human AURKB incubated for 2 hrs by nano-BRET assay based cellular target engagement assay
# Wee1-like protein kinase [11] = molecular target: T6, Wee1-like protein kinase (Homo sapiens, UniProt P30291); assay: Binding affinity to human WEE1 assessed as displacement of immobilized ligand by KINOMEscan scanMAX assay relative to control
# T6 sequence (P30291 whole entry): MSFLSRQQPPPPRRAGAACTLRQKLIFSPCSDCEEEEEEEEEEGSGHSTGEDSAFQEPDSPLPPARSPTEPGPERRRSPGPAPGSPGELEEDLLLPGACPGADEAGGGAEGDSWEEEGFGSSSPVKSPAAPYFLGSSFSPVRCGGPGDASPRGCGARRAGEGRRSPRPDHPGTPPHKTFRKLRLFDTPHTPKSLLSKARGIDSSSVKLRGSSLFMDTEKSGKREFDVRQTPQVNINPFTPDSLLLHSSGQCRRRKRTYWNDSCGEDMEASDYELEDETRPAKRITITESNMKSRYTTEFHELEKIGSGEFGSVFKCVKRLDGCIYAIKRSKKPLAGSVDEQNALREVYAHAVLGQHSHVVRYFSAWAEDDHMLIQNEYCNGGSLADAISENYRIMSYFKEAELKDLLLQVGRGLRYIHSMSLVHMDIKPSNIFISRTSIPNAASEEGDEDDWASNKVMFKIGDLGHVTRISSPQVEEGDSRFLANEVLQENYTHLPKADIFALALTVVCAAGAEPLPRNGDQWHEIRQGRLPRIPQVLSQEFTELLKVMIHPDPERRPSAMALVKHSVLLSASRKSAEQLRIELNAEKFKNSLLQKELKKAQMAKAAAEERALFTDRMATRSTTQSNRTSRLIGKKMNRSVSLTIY
# [12] = molecular target: T5, Hepatocyte growth factor receptor; assay: Inhibition of human MET in presence of ATP at Km level
# [13] = molecular target: T7, Serine/threonine-protein kinase 38-like (Homo sapiens, UniProt Q9Y2H1); assay: Binding affinity to human STK38L assessed as displacement of immobilized ligand by KINOMEscan scanMAX assay relative to control
# T7 sequence (Q9Y2H1 whole entry): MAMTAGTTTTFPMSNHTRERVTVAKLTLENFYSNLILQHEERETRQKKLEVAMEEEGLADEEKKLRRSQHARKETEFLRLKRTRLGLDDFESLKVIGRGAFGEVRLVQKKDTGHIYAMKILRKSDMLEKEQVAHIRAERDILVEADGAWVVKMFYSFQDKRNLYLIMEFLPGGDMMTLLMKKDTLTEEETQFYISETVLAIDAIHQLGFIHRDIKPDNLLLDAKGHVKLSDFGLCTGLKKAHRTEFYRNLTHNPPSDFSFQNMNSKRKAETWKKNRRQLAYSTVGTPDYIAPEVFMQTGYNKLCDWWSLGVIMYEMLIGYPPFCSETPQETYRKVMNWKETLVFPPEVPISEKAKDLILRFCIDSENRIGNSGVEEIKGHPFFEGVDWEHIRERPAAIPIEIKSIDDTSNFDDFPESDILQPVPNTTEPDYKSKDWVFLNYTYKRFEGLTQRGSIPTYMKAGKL
# [14] = molecular target: T7, Serine/threonine-protein kinase 38-like; assay: Binding affinity to human STK38L incubated for 2 hrs by nano-BRET assay based cellular target engagement assay
# [15] = molecular target: T8, Serine/threonine-protein kinase pim-2 (Homo sapiens, UniProt Q9P1W9); assay: Inhibition of human PIM2 in presence of ATP at Km level
# T8 sequence (Q9P1W9 whole entry): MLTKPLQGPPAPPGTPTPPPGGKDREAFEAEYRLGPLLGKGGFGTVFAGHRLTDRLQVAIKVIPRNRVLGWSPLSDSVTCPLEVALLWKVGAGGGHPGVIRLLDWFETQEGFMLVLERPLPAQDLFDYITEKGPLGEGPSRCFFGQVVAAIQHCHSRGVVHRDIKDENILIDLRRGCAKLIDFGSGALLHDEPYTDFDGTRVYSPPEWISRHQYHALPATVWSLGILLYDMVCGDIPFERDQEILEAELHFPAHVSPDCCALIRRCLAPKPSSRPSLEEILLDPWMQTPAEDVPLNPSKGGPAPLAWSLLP
# [16] = molecular target: T9, Calcium/calmodulin-dependent protein kinase kinase 2 (Homo sapiens, UniProt Q96RR4); assay: Binding affinity to human CAMKK2 assessed as displacement of immobilized ligand by KINOMEscan scanMAX assay relative to control
# T9 sequence (Q96RR4 whole entry): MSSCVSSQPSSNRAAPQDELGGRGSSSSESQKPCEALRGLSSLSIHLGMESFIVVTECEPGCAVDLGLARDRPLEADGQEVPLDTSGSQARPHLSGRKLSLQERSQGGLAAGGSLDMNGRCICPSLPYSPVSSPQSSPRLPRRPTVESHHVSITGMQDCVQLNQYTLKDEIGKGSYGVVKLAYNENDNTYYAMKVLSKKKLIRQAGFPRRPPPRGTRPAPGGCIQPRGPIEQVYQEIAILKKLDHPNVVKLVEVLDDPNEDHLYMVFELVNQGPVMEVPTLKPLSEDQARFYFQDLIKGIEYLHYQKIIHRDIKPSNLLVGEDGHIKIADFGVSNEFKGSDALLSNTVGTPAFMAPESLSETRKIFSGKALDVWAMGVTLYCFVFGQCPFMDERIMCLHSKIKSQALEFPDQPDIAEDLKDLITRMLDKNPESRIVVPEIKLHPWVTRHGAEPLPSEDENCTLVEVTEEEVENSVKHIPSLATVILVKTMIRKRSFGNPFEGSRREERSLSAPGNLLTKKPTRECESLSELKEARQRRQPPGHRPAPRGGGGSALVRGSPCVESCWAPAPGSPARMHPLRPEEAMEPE
# [17] = molecular target: T8, Serine/threonine-protein kinase pim-2; assay: Binding affinity to human PIM2 assessed as displacement of immobilized ligand by KINOMEscan scanMAX assay relative to control
# [18] = molecular target: T10, Serine/threonine-protein kinase Nek6 (Homo sapiens, UniProt Q9HC98); assay: Inhibition of human NEK6 in presence of ATP at Km level
# T10 sequence (Q9HC98 whole entry): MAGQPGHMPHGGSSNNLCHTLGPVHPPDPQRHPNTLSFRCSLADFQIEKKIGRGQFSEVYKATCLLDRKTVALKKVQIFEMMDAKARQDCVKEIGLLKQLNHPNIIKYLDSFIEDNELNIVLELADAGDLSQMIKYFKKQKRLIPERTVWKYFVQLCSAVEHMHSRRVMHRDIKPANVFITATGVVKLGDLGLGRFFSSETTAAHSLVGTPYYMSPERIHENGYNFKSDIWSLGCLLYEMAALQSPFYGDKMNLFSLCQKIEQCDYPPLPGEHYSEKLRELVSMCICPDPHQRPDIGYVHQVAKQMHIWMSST
# [19] = molecular target: T2, Serine/threonine-protein kinase 17A; assay: Binding affinity to human STK17A assessed as displacement of immobilized ligand by KINOMEscan scanMAX assay relative to control
# [20] = molecular target: T9, Calcium/calmodulin-dependent protein kinase kinase 2; assay: Binding affinity to human CAMKK2 incubated for 2 hrs by nano-BRET assay based cellular target engagement assay
# [21] = molecular target: T10, Serine/threonine-protein kinase Nek6; assay: Binding affinity to human NEK6 assessed as displacement of immobilized ligand by KINOMEscan scanMAX assay relative to control
# Wee1-like protein kinase [22] = molecular target: T6, Wee1-like protein kinase; assay: Inhibition of human WEE1 in presence of ATP at Km level
# [23] = molecular target: T2, Serine/threonine-protein kinase 17A; assay: Binding affinity to human STK17A incubated for 2 hrs by nano-BRET assay based cellular target engagement assay
# [24] = molecular target: T7, Serine/threonine-protein kinase 38-like; assay: Inhibition of human STK38L in presence of ATP at Km level
# [25] = molecular target: T1, Serine/threonine-protein kinase 17B; assay: Inhibition of human STK17B in presence of ATP at Km level
# [26] = molecular target: T9, Calcium/calmodulin-dependent protein kinase kinase 2; assay: Inhibition of human CAMKK2 in presence of ATP at Km level
# [27] = molecular target: T2, Serine/threonine-protein kinase 17A; assay: Inhibition of human STK17A in presence of ATP at Km level
# [28] = molecular target: T4, Calcium/calmodulin-dependent protein kinase kinase 1; assay: Inhibition of human CAMKK1 in presence of ATP at Km level
# [29] = molecular target: T1, Serine/threonine-protein kinase 17B; assay: Binding affinity to N-terminal His-tagged STK17B kinase domain (25 to 329 residues) (unknown origin) expressed in Escherichia coli by KINOMEscan scanMAX assay
# [30] = molecular target: T1, Serine/threonine-protein kinase 17B; assay: Binding affinity to human STK17B assessed as displacement of immobilized ligand by KINOMEscan scanMAX assay relative to control
# [31] = molecular target: T2, Serine/threonine-protein kinase 17A; assay: Inhibition of STK17A (unknown origin) incubated for 90 mins by Kinase seeker split luciferase assay
# [32] = molecular target: T11, Homeodomain-interacting protein kinase 4 (Homo sapiens, UniProt Q8NE63); assay: Binding affinity to human HIPK4 by KINOMEscan scanMAX assay
# T11 sequence (Q8NE63 whole entry): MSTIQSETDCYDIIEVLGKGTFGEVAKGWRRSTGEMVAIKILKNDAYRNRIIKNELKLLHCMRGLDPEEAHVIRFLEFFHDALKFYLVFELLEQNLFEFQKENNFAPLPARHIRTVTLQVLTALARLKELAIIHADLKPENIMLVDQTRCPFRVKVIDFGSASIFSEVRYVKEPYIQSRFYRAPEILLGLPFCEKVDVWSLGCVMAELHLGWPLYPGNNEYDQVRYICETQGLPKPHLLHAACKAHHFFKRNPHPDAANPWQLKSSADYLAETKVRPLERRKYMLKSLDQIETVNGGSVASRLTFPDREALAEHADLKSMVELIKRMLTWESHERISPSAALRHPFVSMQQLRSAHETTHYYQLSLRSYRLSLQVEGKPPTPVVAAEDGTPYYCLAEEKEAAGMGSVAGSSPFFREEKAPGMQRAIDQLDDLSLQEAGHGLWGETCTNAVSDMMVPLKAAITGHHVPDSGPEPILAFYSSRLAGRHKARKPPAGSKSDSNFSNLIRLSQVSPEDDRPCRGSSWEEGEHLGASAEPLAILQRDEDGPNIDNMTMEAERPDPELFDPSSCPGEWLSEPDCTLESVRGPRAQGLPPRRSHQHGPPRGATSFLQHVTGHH
smiles,measurement,setting,value
CSc1ccc(-c2cc3ncnc(SCC(=O)O)c3s2)cc1,"remaining at 0.5 h, 100 µM",[1],0%
same,IC50,[2],20 nM
same,Kd,[3],230 nM
same,IC50,[4],210 nM
same,solubility kinetic,[5],42 µg/mL
O=C(O)CSc1ncnc2cc(-c3ccc(C4CC4)cc3)sc12,"remaining at 0.5 h, 100 µM",[1],66%
same,IC50,[2],62 nM
same,IC50,[4],530 nM
same,solubility kinetic,[5],55 µg/mL
CC(C)c1ccc(-c2cc3ncnc(SCC(=O)O)c3s2)cc1,"remaining at 0.5 h, 100 µM",[1],35%
same,IC50,[2],59 nM
same,IC50,[4],550 nM
same,solubility kinetic,[5],23 µg/mL
O=C(O)CSc1ncnc2cc(-c3cc4ccccc4s3)sc12,Kd,Aurora kinase B [6],110 nM
same,Kd,[7],49 nM
same,Kd,[8],> 10000 nM
same,IC50,Aurora kinase B [9],8900 nM
same,IC50,Aurora kinase B [10],> 10000 nM
same,Kd,Wee1-like protein kinase [11],> 10000 nM
same,IC50,[12],> 10000 nM
same,Kd,[13],> 10000 nM
same,IC50,[14],> 10000 nM
same,IC50,[15],> 10000 nM
same,Kd,[16],21 nM
same,Kd,[17],1500 nM
same,"remaining at 0.5 h, 100 µM",[1],63%
same,IC50,[18],> 10000 nM
same,Kd,[19],440 nM
same,IC50,[20],2400 nM
same,IC50,[2],34 nM
same,Kd,[21],> 10000 nM
same,IC50,Wee1-like protein kinase [22],> 10000 nM
same,IC50,[23],> 10000 nM
same,IC50,[24],> 10000 nM
same,IC50,[25],34 nM
same,IC50,[26],> 10000 nM
same,IC50,[27],4700 nM
same,IC50,[28],5200 nM
same,IC50,[4],190 nM
same,Kd,[29],5.6 nM
same,Kd,[30],5.6 nM
same,solubility kinetic,[5],5 µg/mL
COc1ccccc1-c1cc2ncnc(SCC(=O)O)c2s1,"remaining at 0.5 h, 100 µM",[1],24%
same,IC50,[2],110 nM
same,IC50,[4],1700 nM
same,solubility kinetic,[5],69 µg/mL
O=C(O)CSc1ncnc2sc(-c3cc4ccccc4s3)cc12,IC50,[31],> 10000 nM
same,IC50,[2],4800 nM
same,Kd,[32],290 nM
same,Kd,[3],9800 nM
same,IC50,[4],> 10000 nM
same,Kd,[29],910 nM
C=Cc1ccc(-c2cc3ncnc(SCC(=O)O)c3s2)cc1,"remaining at 0.5 h, 100 µM",[1],38%
same,IC50,[2],28 nM
same,IC50,[4],120 nM
same,solubility kinetic,[5],74 µg/mL
